# Source: patent publication US20140205537A1, “LRRK2 INHIBITORS” (ZENOBIA THERAPEUTICS, INC., priority 2011, published 2014)
# What was measured:
# [1] = target: LCK (Homo sapiens, UniProt P06239); assay: Kinase selectivity panel: LCK; format: biochemical
# [2] = target: GSK3beta (Homo sapiens, UniProt P49841); assay: Kinase selectivity panel: GSK3beta; format: biochemical
# [3] = target: MLK1 (Homo sapiens, UniProt P80192); assay: Kinase selectivity panel: MLK1; format: biochemical
# [4] = target: HGK (Homo sapiens, UniProt O95819); assay: Kinase selectivity panel: HGK; format: biochemical
# Chain of HGK (O95819 whole entry, species assumed): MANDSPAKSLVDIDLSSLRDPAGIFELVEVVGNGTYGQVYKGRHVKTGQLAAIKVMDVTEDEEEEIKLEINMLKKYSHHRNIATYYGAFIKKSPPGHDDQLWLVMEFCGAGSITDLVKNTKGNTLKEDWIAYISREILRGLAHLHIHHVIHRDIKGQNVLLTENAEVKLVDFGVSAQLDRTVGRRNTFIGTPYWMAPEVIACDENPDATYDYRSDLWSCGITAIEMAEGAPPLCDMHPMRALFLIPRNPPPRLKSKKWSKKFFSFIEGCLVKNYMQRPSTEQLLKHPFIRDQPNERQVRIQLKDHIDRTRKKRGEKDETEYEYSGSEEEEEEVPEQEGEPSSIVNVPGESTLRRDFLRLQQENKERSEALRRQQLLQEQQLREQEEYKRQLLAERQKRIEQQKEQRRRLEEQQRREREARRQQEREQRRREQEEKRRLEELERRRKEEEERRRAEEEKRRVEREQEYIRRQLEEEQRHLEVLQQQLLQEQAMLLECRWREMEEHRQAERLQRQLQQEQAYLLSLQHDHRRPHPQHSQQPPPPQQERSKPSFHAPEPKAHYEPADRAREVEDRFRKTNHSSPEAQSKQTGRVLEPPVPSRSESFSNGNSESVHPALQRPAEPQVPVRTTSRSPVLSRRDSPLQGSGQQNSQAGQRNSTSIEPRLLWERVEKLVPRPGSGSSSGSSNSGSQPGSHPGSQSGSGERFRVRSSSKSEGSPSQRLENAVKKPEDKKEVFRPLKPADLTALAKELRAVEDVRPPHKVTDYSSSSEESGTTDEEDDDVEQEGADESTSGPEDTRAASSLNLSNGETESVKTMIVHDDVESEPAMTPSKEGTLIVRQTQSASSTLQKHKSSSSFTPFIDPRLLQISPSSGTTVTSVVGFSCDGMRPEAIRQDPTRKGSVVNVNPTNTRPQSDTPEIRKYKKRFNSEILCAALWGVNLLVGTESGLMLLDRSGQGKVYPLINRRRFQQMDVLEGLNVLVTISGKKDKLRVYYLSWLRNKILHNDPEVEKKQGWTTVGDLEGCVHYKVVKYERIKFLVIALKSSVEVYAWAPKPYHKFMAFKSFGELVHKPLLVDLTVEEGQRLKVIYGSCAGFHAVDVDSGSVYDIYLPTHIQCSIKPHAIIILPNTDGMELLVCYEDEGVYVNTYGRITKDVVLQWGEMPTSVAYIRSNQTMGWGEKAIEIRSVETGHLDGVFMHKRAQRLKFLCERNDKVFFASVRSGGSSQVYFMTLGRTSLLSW
# [5] = target: DYRK3 (Homo sapiens, UniProt O43781); assay: Kinase selectivity panel: DYRK3; format: biochemical
# [6] = target: PHKG2 (Homo sapiens, UniProt P15735); assay: Kinase selectivity panel: PHKG2; format: biochemical
# [7] = target: MEK1 (Homo sapiens, UniProt Q02750); assay: Kinase selectivity panel: MEK1; format: biochemical
# [8] = target: KDR (Homo sapiens, UniProt P35968); assay: Kinase selectivity panel: KDR; format: biochemical
# Chain of KDR (P35968 20-1356, species assumed): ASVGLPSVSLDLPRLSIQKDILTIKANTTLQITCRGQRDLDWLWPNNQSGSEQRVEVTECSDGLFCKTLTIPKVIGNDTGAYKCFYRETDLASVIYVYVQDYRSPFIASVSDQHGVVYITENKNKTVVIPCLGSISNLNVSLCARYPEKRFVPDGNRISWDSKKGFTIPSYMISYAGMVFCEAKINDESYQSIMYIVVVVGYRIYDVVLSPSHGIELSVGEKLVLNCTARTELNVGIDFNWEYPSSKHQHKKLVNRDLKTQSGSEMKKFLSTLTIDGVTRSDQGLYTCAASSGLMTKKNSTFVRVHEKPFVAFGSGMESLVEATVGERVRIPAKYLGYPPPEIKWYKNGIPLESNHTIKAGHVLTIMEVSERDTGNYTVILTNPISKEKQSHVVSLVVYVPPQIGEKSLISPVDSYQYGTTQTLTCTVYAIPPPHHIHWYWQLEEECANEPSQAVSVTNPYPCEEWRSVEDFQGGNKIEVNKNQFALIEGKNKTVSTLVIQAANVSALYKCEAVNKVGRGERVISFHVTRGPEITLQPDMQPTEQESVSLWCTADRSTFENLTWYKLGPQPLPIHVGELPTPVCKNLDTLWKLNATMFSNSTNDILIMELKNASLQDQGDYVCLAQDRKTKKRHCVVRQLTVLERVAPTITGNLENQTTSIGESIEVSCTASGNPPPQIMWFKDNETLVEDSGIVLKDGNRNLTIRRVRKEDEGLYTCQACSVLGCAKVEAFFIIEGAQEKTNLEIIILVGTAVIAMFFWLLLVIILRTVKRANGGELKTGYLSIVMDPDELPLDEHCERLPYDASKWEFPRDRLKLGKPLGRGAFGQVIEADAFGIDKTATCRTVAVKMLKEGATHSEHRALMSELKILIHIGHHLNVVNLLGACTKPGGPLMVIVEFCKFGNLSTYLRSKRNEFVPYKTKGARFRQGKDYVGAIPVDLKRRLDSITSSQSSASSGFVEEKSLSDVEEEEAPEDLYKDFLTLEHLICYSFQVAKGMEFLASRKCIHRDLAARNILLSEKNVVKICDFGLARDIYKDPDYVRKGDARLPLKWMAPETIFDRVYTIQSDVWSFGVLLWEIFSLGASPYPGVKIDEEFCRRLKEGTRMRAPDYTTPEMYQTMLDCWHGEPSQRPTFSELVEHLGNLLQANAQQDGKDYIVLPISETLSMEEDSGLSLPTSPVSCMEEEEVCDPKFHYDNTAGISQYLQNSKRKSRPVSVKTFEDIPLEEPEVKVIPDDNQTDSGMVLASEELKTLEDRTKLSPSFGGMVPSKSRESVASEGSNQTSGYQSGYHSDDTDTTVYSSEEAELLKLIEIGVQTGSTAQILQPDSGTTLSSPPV
# [9] = target: TAK1-TAB1 (Homo sapiens, UniProt O43318); assay: Kinase selectivity panel: TAK1-TAB1; format: biochemical
# [10] = target: TRKA (Homo sapiens, UniProt P04629); assay: Kinase selectivity panel: TRKA; format: biochemical
# [11] = target: P38 alpha (Homo sapiens, UniProt Q16539); assay: Kinase selectivity panel: P38 alpha; format: biochemical
# [12] = target: AKT1 (Homo sapiens, UniProt P31749); assay: Kinase selectivity panel: AKT1; format: biochemical
# Chain of AKT1 (P31749 whole entry, species assumed): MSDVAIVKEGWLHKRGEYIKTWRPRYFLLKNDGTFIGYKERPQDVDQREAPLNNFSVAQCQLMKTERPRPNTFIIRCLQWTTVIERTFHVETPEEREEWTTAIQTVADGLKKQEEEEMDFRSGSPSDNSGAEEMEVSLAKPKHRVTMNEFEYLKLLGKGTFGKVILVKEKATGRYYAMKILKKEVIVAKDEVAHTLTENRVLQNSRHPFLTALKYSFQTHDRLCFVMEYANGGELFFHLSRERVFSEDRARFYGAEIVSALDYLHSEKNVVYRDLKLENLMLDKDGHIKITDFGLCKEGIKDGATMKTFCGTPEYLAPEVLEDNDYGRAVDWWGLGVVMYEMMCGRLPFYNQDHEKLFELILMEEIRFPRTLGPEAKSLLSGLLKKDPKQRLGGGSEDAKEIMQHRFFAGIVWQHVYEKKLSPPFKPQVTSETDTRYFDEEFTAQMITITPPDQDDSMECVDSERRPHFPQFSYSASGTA
# [13] = target: G2019S LRRK2 (Homo sapiens, UniProt Q5S007, G2019S); assay: G2019S LRRK2 inhibition (Invitrogen SelectScreen / TR-FRET biochemical assay); design: The protein construct used in the assay is GST tagged 969-2527; GST; purchased Invitrogen; details: numeric value
# Procedure: IC50s were determined using Invitrogen's SelectScreen® Profiling Service for wild type and LRRK2 G2019S. The test compounds were screened in 1% DMSO (final) in the well.
# a) % inhibition is measured at one concentration
# b) a 10-point titration is run to ensure the kinase is inhibited within an expected IC50 range
# Biochemical Assay Protocol:
# Compound potency against wild-type and G2019S LRRK2 is measured via TR-FRET. The IC50, the amount of inhibitor required to inhibitor 50% of the protein under the given assay conditions, is determined by varying the amount of compound (500-0.001 uM) by serial dilution with 12-data points per compound, in duplicate. The substrate (Fluorescein-GAGRLGRDKYKTLRQIRQ) and ATP is fixed at 0.8 uM and 57 uM (KmATP), respectively. All assays are run in Corning low volume […] round bottomed plates. The assay is run in 50 mM Tris-HCl pH8.5, 10 mM MgCl2, 0.01% Brij-35, 1 mM EGTA, 2 mMDTT. The TR-FRET assay is an end-point assay where the reaction with protein, substrate, inhibitor and ATP is incubated for 1 hour at room temperature. The compound is pre-incubated with the protein and substrate prior to initiating the reaction with ATP. Phospho-transfer is detected using a Terbium labeled anti-pLRRKtide that binds to phosphorylated substrate creating FRET transfer when excited at 340 nm. Emissions signals are taken for terbium and FRET induced fluorescein at 495 nm and 520 nm, respectively, using a Biotek Synergy 2 spectrophotometer. The dose response is determined by plotting the emission ratio of 520/495 against the log of the inhibitor concentration. The maximum inhibition and non-inhibition controls is run on all plates. Staurosporine is used as the positive inhibition control and DMSO is used as the negative point control. A 12-point dose curve of Staurosporine is run as a dosing control. The IC50 is determined to be the inhibitor concentration at which 50% inhibition is achieved. The protein construct used in the assay is GST tagged 969-2527. The protein is commercially available from Invitrogen.
# Alternatively, compounds of formulas (II), (I), (I-A), (I-B), (I-C), (I-D), (I-D-1), (I-D-2), (I-E), (I-F), (I-G), (I-H), (I-I), (I-I-1), (I-I-2), (I-J), (I-K), (I-L), (I-M), (I-N), (I-Z-1), (I-Z-2), (I-Z-2-a), (I-Z-2-b), (I-Z-2-c), (I-Z-2-d), (I-Z-3-a), (I-Z-3-b), (I-Z-3-c), or (I-Z-3-d) were tested using Invitrogen's SelectScreen® Profiling Service for LRRK2 G2019S.
# [14] = target: IKKbeta (Homo sapiens, UniProt O14920); assay: Kinase selectivity panel: IKKbeta; format: biochemical
# Chain of MLK1 (P80192 whole entry, species assumed): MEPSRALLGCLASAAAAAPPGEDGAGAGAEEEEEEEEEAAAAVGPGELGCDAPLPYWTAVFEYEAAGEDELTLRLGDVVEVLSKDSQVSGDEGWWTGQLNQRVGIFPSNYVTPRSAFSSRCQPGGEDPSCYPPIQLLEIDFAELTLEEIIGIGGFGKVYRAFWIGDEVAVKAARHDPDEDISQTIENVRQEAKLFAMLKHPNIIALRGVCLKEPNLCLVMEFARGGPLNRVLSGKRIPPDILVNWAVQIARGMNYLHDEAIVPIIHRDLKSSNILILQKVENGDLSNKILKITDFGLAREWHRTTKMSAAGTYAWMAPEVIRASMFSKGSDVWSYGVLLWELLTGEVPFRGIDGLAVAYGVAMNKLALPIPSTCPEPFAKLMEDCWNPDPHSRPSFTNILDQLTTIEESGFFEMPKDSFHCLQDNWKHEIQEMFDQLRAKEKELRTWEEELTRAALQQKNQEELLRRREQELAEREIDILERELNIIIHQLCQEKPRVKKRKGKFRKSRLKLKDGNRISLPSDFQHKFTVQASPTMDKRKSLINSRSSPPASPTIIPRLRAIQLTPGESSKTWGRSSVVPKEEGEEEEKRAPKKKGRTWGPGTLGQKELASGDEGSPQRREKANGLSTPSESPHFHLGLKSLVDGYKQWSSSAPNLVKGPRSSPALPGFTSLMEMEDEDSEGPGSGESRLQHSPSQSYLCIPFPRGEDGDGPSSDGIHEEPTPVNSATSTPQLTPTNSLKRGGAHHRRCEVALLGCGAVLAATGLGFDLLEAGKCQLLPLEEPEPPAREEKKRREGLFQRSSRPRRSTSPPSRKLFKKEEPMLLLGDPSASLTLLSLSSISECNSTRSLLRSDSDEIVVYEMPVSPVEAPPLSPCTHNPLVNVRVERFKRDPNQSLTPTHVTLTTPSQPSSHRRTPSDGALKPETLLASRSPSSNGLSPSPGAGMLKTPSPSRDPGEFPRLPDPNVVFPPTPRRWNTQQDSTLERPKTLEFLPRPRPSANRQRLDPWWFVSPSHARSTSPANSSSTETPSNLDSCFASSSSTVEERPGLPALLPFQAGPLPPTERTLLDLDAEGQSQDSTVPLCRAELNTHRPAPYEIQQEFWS
# Chain of LCK (P06239 whole entry, species assumed): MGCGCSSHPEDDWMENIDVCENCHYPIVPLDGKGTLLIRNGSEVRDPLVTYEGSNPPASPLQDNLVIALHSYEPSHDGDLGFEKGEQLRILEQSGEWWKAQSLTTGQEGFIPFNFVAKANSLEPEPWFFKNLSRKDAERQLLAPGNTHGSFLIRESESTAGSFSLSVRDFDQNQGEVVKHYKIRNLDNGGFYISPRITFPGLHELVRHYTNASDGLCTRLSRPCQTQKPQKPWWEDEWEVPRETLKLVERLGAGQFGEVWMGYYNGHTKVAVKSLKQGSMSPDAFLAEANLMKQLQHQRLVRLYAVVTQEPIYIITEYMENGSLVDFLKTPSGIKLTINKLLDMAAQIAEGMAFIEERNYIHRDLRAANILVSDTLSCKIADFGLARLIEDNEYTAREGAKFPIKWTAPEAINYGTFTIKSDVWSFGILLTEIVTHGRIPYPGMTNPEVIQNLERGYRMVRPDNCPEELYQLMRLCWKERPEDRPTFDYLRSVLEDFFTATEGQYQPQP
# Chain of GSK3beta (P49841 whole entry, species assumed): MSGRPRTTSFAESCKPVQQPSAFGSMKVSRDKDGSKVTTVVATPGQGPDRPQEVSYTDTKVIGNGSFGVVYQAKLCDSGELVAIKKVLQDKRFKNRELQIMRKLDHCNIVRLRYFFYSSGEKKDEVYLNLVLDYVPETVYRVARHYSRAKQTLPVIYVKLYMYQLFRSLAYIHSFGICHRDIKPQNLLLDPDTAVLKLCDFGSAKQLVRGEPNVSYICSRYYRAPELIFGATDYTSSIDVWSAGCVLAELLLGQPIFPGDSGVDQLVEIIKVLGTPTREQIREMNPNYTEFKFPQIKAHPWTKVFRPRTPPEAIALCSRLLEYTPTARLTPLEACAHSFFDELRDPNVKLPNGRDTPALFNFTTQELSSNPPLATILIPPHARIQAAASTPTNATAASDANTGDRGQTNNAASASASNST
structure (smiles),measurement,setting,value
"COc1ccc2c(c1)/C(=C/c1cnc(C3CCOCC3)[nH]1)C(=O)N2 [Compound 18, (3Z)-5-methoxy-3-[(2-tetrahydropyran-4-yl-1H-imidazol-5-yl)methylene]indolin-2-one]",inhibition at 0.1 µM,[1],3%
same,inhibition at 0.1 µM,[2],0%
same,inhibition at 0.1 µM,[3],-17%
same,inhibition at 0.1 µM,[4],-18%
same,inhibition at 0.1 µM,[5],2%
same,inhibition at 0.1 µM,[6],3%
same,inhibition at 0.1 µM,[7],16%
same,inhibition at 0.1 µM,[8],1%
same,inhibition at 0.1 µM,[9],-3%
same,inhibition at 0.1 µM,[10],11%
same,inhibition at 0.1 µM,[11],12%
same,inhibition at 0.1 µM,[12],-2%
same,IC50,[13],5.5 nM
same,inhibition at 0.1 µM,[14],7%
